Laboratory results: US20110288105A1, “ELTOPRAZINE FOR THE TREATMENT OF L-DOPA-INDUCED DYSKINESIA” (Merz Pharma GmbH & Co. KGaA, priority 2008, published 2011)
“Also recorded” adds a separate entry of the source.

How the values were obtained:
[1] = test system: rodent models of depression; conditions: in vivo; cited from earlier work
dopamine D2 receptor = dopamine D2 receptor (Homo sapiens, UniProt P14416); experiment: Affinity for dopamine D2 receptor; assay type: binding
[2] = test system: unilaterally 6-OHDA-lesioned rats; experiment: Turning behaviour induced by high dose of L-DOPA in 6-OHDA-lesioned rats; assay type: in vivo, rat; conditions: 0.3, 1.25 and 5 mg/kg, 30 min before test, FIG. 3
Description: (§1) Male Sprague Dawley rats (Elevage Janvier, Le Genest Saint Isle, France) weighing between 220 and 250 g at the beginning of the study are used in these experiments. They are housed under a 12-hr light/dark cycle with free access to standard pelleted food and tap water. Animal treatment and experimental procedures are approved by local ethical committees (Regierungspräsidium Darmstadt; Germany).
(§2) Dopamine-denervating lesions are performed on rats anaesthetized with a 5:1 mixture of ketamine and xylazine (1 ml/kg, i.p.). […] The animals' turning behaviour is recorded in an automated rotometer (TSE Rotameter System, TSE—Systems GmbH, Bad Homburg, Germany) over a 90-min period after the intraperitoneal (i.p.) injection of 2.5 mg/kg dexamphetamine sulphate dissolved in saline. […]
In order to evaluate the effect of eltoprazine on parkinsonian symptoms and its interaction with L-DOPA, rotational behaviour is evaluated. The numbers of ipsilateral and contralateral turns are recorded in an automated rotometer (TSE Rotameter System, TSE—Systems GmbH, Bad Homburg, Germany) over a period of 180 min. […]

[3] = molecular target: T1, human serotonin HT1a receptor (Homo sapiens, UniProt P08908); experiment: GTPγS assay, agonist testing, 5-HT1a; assay type: biochemical; conditions: human recombinant cell lines; FIG. 1; relevant plasma concentration (<0.5 μM)
T1 construct: expressed in transfected cells; host or cells: CHO-K1
T1 sequence (P08908 1-422): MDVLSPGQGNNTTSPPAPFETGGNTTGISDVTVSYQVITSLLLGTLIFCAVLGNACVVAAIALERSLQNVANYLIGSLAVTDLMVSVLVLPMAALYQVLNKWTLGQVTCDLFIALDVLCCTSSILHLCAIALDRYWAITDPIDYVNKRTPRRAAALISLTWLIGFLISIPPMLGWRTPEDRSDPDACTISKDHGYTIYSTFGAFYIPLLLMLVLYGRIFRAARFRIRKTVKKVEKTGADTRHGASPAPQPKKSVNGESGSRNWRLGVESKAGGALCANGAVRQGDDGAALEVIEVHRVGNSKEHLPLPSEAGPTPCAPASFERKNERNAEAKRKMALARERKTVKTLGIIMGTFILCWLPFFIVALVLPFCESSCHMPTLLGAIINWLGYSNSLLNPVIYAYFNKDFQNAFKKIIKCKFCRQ
Description: (§3) Eltoprazine was tested for activity on the human serotonin HT1a and 5-HT1b receptors using a GTPγS assay. Recombinant membranes obtained from CHO-K1 cells expressing either the 5-HT1a or 5-HT1b receptors were mixed with GDP (volume:volume) and incubated for at least 15 min on ice. In parallel, GTPγ[35S] was mixed with the beads (volume:volume) just before starting the reaction. The following reagents were successively added in the wells of an Optiplate (Perkin Elmer): 50 μl of test compound, 20 μl of the membranes:GDP mix, 10 μl of assay buffer (for agonist testing) and 20 μl of the GTPγ[35S]:beads mix. The plates were covered with a top seal, shaken on an orbital shaker for 2 min, and then incubated for 1 hour at room temperature. Then the plates were centrifuged for 10 min at 2000 rpm, incubated at room temperature 1 hour and counted for 1 min/well with a PerkinElmer TopCount reader.

human 5-HT1b receptor = molecular target: T2, human 5-HT1b receptor (Homo sapiens, UniProt P28222); experiment: GTPγS assay, agonist testing, 5-HT1b; assay type: biochemical; conditions: human recombinant cell lines; FIG. 1; relevant plasma concentration (<0.5 μM)
T2 construct: expressed in transfected cells; host or cells: CHO-K1
T2 sequence (P28222 whole entry): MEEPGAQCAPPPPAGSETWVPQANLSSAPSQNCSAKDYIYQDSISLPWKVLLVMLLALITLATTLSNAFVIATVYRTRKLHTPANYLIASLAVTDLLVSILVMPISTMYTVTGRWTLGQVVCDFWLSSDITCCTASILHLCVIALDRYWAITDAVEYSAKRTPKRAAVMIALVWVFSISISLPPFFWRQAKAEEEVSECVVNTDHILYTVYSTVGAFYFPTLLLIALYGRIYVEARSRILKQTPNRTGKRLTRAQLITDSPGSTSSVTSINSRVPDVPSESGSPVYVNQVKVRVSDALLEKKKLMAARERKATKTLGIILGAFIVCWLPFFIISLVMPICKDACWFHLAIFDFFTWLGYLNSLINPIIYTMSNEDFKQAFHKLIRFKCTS
Description: as §3

[4] = test system: unilaterally 6-OHDA-lesioned rats; experiment: L-DOPA-induced dyskinesia (AIM scores) in 6-OHDA-lesioned rat model of Parkinson's disease; assay type: in vivo; conditions: eltoprazine hydrochloride 0.08, 0.3, 1.25 and 5 mg/kg s.c.; after 21 days of L-DOPA; FIG. 2
Description: as §1, §2
In order to evaluate a the severity of LID, AIMs are recorded every second day as described by Cenci et al. (1998). […]
Eur J Neurosci 1998 10:2694-2706. […] Each rat is scored on a severity scale from 0 to 4 based on its frequency and persistence (1=occasional; 2=frequent; 3=continuous but interrupted by sensory distraction; 4=continuous, severe and not interrupted by sensory distraction). […]

[5] = molecular target: T3, 5-HT2a recombinant receptor (Homo sapiens, UniProt P28223); experiment: Aequorin cell line functional assay, 5-HT2a; assay type: cell-based; conditions: human recombinant cell lines; FIG. 1; relevant plasma concentration (<0.5 μM)
T3 construct: expressed in transfected cells
T3 sequence (P28223 whole entry): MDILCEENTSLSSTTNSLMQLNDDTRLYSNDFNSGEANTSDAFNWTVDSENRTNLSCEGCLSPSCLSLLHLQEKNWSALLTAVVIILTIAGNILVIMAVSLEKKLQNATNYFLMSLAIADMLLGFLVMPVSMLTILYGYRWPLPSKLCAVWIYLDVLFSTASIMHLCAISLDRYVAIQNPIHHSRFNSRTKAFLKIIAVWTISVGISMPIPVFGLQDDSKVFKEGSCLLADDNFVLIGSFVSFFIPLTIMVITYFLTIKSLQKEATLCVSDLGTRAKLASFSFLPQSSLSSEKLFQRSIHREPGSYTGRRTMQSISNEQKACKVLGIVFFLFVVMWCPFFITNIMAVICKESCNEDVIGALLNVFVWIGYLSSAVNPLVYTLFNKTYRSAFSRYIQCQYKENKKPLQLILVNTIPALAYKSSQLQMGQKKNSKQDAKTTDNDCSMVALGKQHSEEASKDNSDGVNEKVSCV
Description: (§4) Aequorin cell lines expressing the 5-HT2a, 5-HT2b and 5-HT2c non-edited (ne) recombinant receptors were used to evaluate the functional activity of eltoprazine. Aequorin cells grown 18 hours prior to the test in media without antibiotics were detached by gentle flushing with PBS-EDTA (5 mM EDTA), recovered by centrifugation and resuspended in “assay buffer” (DMEM/HAM's F12 with HEPES+0.1% BSA protease free). Cells were incubated at room temperature for at least 4 h with Coelenterazine h (Molecular Probes). The reference agonist used were 5-HT and a-methyl-5-HT. For agonist testing, 50 μl of cell suspension were injected on 50 μl of test compound or reference agonist plated in a 96-well plate. The resulting emission of light was recorded using the Hamamatsu Functional Drug Screening System 6000 (FDSS 6000).

[6] = molecular target: T4, 5-HT2c non-edited (ne) recombinant receptor (Homo sapiens, UniProt P28335); experiment: Aequorin cell line functional assay, 5-HT2c non-edited; assay type: cell-based; conditions: human recombinant cell lines; FIG. 1; relevant plasma concentration (<0.5 μM)
T4 construct: expressed in transfected cells
T4 sequence (P28335 33-458): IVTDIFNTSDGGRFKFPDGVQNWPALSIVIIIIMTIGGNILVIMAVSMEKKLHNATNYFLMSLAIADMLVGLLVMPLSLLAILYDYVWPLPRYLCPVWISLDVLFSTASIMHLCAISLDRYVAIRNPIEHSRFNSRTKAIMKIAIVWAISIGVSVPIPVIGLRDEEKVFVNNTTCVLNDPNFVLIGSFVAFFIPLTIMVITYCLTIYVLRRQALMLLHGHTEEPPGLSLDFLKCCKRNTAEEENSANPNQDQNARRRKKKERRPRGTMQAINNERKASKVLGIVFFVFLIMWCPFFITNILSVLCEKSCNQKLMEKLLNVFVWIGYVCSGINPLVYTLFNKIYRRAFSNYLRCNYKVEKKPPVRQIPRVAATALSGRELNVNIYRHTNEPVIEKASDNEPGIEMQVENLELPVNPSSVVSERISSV
Description: as §4

[7] = test system: 1-methyl-4-phenyl-1,2,3,6-tetrahydropyridine-treated primates; conditions: monkey studies; Iravani et al. 2003; cited from earlier work

Sequence of dopamine D2 receptor (P14416 whole entry, species assumed): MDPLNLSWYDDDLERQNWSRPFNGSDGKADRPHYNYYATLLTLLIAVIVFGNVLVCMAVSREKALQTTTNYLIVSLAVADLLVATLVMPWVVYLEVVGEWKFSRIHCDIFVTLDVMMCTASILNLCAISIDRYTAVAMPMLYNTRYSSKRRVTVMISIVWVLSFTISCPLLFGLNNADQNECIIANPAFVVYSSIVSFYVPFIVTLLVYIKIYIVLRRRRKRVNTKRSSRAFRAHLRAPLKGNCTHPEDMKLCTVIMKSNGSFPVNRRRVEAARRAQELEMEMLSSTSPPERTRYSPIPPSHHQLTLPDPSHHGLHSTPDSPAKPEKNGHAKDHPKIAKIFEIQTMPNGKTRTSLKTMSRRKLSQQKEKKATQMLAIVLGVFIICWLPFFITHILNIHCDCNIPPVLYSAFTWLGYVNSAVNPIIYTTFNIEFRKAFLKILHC

CCc1cc2c(ccc3cnn(C[C@H](C)N)c32)o1 [YM348]
effect in rodent models of depression [1]: positive effects

c1cc2c3c(c1)[C@H]1CCC[C@H]1N3CCNC2 [WAY-163909]
effect in rodent models of depression [1]: positive effects

c1cc2c(c(N3CCNCC3)c1)OCCO2 [eltoprazine, 1-(2,3-dihydro-1,4-benzodioxin-5-yl)piperazine]
affinity for the dopamine D2 receptor (dopamine D2 receptor): devoid of significant affinity | interference with the antiparkinsonian effect of L-DOPA (turning behaviour) [2]: does not interfere with the antiparkinsonian effect of L-DOPA; also recorded: does not interfere with the anti-parkinsonian effect of L-DOPA | functional action on 5-HT1a receptor [3]: weak agonistic action | functional action on 5-HT1b receptor (human 5-HT1b receptor): partial agonistic action | effect on AIM scores (L-DOPA-induced dyskinesia) [4]: significantly reverses, in a dose-dependent manner | functional action on 5-HT2a receptor [5]: partial agonistic action | functional action on 5-HT2c receptor [6]: agonist

COc1ccc2[nH]cc(C3=CCNCC3)c2c1 [Ru-24969]
effect on motor symptoms / side effects [7]: worsening of motor symptoms and/or development of side effects

COc1ccc2c(c1O[C@H]1CCNC1)CCC2 [Org 37684]
effect in rodent models of depression [1]: positive effects

Clc1cccc(N2CCNCC2)c1 [mCPP]
effect in rodent models of depression [1]: positive effects

C[C@H](N)Cn1ccc2cc(F)c(Cl)cc21 [Ro 60-0175]
effect in rodent models of depression [1]: positive effects
